# Reference: PubChem BioAssay (NCI)
#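 The compound was tested at five concentrations on cells cultured in 96-well plates, with a 48-hour exposure period. At the GI50, growth is halved. TGI: total growth inhibition.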
# System: MDA-MB-435
# Assay: NCI-60 cell line screen, 48 h
SMILES,GI50,TGI
Nc1nc(Nc2ccccc2)c2ncn(Cc3cc4c(cc3Br)OCO4)c2n1,0.0301 µM,0.129 µM
Nc1c(C(=O)N/N=C/c2ccc(-c3ccc(Cl)cc3)o2)cnn1-c1ccnc2c(C(F)(F)F)cccc12,> 100 µM,> 100 µM
CCCCCc1c(C)[nH]c(/C=C2\N=C(c3ccc[nH]3)C=C2CC)c1C,< 0.01 µM,0.108 µM
CC(=O)Oc1ccccc1C(=O)N=C1[Se]CCN1C(=O)c1ccccc1OC(C)=O,0.462 µM,1.87 µM
Cc1cn2c(/C=C3/C(=O)Nc4ccccc43)c(-c3ccc(Cl)cc3)nc2s1,8.07 µM,14.8 µM
C#C[C@]1(O)CC[C@H]2[C@@H]3CC=C4c5sc(Nc6ccccc6)nc5CC[C@]4(C)[C@H]3CC[C@@]21C,3 µM,11.2 µM
CSC1(CC(=O)N(C)C)C(=O)Nc2ccccc21 (centres undefined),,> 100 µM
O/N=C\c1c(O)ccc2ccccc12,,> 100 µM
COc1cc2cn3c4ccc(O)cc4[nH]c(=O)c3c2cc1OC,< 0.01 µM,0.0192 µM
COc1ccc(/C=c2/sc3n(c2=O)C(c2ccc(OC)c(OC)c2)C2=C(N=3)c3cc(F)ccc3OC2)cc1 (centres undefined),14.1 µM,41.1 µM
COc1ccc(C2C(C#N)=C(N)OC3=C2COc2ccc(F)cc23)cc1OC (centres undefined),23.6 µM,62.3 µM
NC(N)=N/N=C/c1cc(Cl)cc(Cl)c1O,,> 100 µM
N#CC1Nc2ccccc2[C@@H](O)C1O (some centres undefined),,> 100 µM
O=C1c2ccn(CCCCNC(CO)(CO)CO)c2C(=O)c2c1c(O)c1ccccc1c2O,0.992 µM,2.42 µM
c1ccc2c3ccn4cc5c(cc4c-3nc2c1)CCCC5,1.56 µM,4.19 µM

# System: MDA-MB-231 breast
# Assay: NCI-60 cell line screen, 48 h
SMILES,GI50,TGI
Nc1nc(Nc2ccccc2)c2ncn(Cc3cc4c(cc3Br)OCO4)c2n1,0.0497 µM,> 51.9 µM
Nc1c(C(=O)N/N=C/c2ccc(-c3ccc(Cl)cc3)o2)cnn1-c1ccnc2c(C(F)(F)F)cccc12,> 100 µM,> 100 µM
CCCCCc1c(C)[nH]c(/C=C2\N=C(c3ccc[nH]3)C=C2CC)c1C,< 0.01 µM,0.0186 µM
CC(=O)Oc1ccccc1C(=O)N=C1[Se]CCN1C(=O)c1ccccc1OC(C)=O,0.472 µM,3.06 µM
Cc1cn2c(/C=C3/C(=O)Nc4ccccc43)c(-c3ccc(Cl)cc3)nc2s1,2.34 µM,9.45 µM
C#C[C@]1(O)CC[C@H]2[C@@H]3CC=C4c5sc(Nc6ccccc6)nc5CC[C@]4(C)[C@H]3CC[C@@]21C,2.01 µM,6.8 µM
O/N=C\c1c(O)ccc2ccccc12,,> 100 µM
COc1cc2cn3c4ccc(O)cc4[nH]c(=O)c3c2cc1OC,0.0516 µM,1.79 µM
COc1ccc(/C=c2/sc3n(c2=O)C(c2ccc(OC)c(OC)c2)C2=C(N=3)c3cc(F)ccc3OC2)cc1 (centres undefined),14.8 µM,> 75.1 µM
COc1ccc(C2C(C#N)=C(N)OC3=C2COc2ccc(F)cc23)cc1OC (centres undefined),14.3 µM,58.8 µM
NC(N)=N/N=C/c1cc(Cl)cc(Cl)c1O,,> 100 µM
N#CC1Nc2ccccc2[C@@H](O)C1O (some centres undefined),,> 100 µM
O=C1c2ccn(CCCCNC(CO)(CO)CO)c2C(=O)c2c1c(O)c1ccccc1c2O,0.457 µM,2.26 µM
c1ccc2c3ccn4cc5c(cc4c-3nc2c1)CCCC5,4.47 µM,20.8 µM
CCN1C(=O)N(CC)C2C1NC(=S)N2/N=C/C=C/c1cccs1 (centres undefined),0.648 µM,> 100 µM

# System: NCI-H460 lung
# Assay: NCI-60 cell line screen, 48 h
SMILES,GI50,TGI
Nc1nc(Nc2ccccc2)c2ncn(Cc3cc4c(cc3Br)OCO4)c2n1,0.0304 µM,17.6 µM
Nc1c(C(=O)N/N=C/c2ccc(-c3ccc(Cl)cc3)o2)cnn1-c1ccnc2c(C(F)(F)F)cccc12,> 100 µM,> 100 µM
CC(=O)Oc1ccccc1C(=O)N=C1[Se]CCN1C(=O)c1ccccc1OC(C)=O,0.379 µM,2.06 µM
CC(C)(C)C(=O)/C=C/c1ccc(Oc2ccccc2)cc1,,43.9 µM
CC1=C(C(=O)Nc2c(C)cccc2C)C(c2ccccc2Cl)C(C(=O)Nc2c(C)cccc2C)=C(C)N1,,> 100 µM
Cc1cn2c(/C=C3/C(=O)Nc4ccccc43)c(-c3ccc(Cl)cc3)nc2s1,8.14 µM,22.1 µM
COc1ccccc1NC(=O)C1=C(C)NC(C)=C(C(=O)Nc2ccccc2OC)C1c1ccc([N+](=O)[O-])cc1,,> 100 µM
O=C(/C=C/c1c(O)ccc2ccccc12)c1ccc2ccccc2c1,,> 100 µM
O=[N+]([O-])c1ccc(-n2nnc(C3=NCCCN3)c2-c2ccc(Cl)cc2)cc1,,> 100 µM
COC(=O)C12C3C4C5(C(=O)OC)C(C1C35C(=O)N(C(C)C)C(C)C)C42C(=O)N(C(C)C)C(C)C (centres undefined),,> 50 µM
N#CC(C#N)=c1[nH]c2cccc3c2-c2c(cccc2c3=C(C#N)C#N)[nH]1,,> 100 µM
C#C[C@]1(O)CC[C@H]2[C@@H]3CC=C4c5sc(Nc6ccccc6)nc5CC[C@]4(C)[C@H]3CC[C@@]21C,2.4 µM,6.4 µM
COC(=O)/C=C/C1C(C(=O)OC)C2(C(=O)OC)CCC1(C(=O)OC)N2 (centres undefined),,> 100 µM
CSC1(CC(=O)N(C)C)C(=O)Nc2ccccc21 (centres undefined),,> 100 µM
N#CC(/C(=N/NC(=O)C(=O)NN)C(=O)NC12CC3CC(CC(C3)C1)C2)c1ccccc1 (centres undefined),,> 100 µM
Cc1cc(C)n(CCNCCn2nc(C)cc2C)n1,,> 100 µM
COc1cc2c(cc1OCc1ccccc1)CNCC2,,> 100 µM
O=C(CN1CCCCC1)N1CCc2c([nH]c3ccccc23)C1c1cccnc1 (centres undefined),,> 100 µM

SMILES,GI50,TGI
O/N=C\c1c(O)ccc2ccccc12,,> 100 µM
CCCCCCCCCc1cc(=O)c2c(O)cccc2o1,,> 100 µM
O=C(C[n+]1ccccc1)NNC(=O)/C(=C/c1ccc2c(c1)OCO2)NC(=O)c1ccccc1,,98.3 µM
COc1ccc(/C=c2/sc3n(c2=O)C(c2ccc(OC)c(OC)c2)C2=C(N=3)c3cc(F)ccc3OC2)cc1 (centres undefined),19.3 µM,> 100 µM
O=S(O)CCCCSSCc1ccccc1CSSCCCCS(=O)O,,> 100 µM
Clc1ccc(-c2c(C3=NCCN3)nnn2-c2ccc(Cl)cc2)cc1,,> 100 µM
CC(C)(C)N1CC2(CCCCC2)C1=O,,> 100 µM
O=C(CCC(=O)Nc1cccc(Cl)c1)CC(=O)c1ccc(Cl)cc1,,> 100 µM
COc1ccc(C2C(C#N)=C(N)OC3=C2COc2ccc(F)cc23)cc1OC (centres undefined),40 µM,> 100 µM
NC1CCCC[C@H]1N.N[C@@H]1CCCC[C@@H]1N.O=C(P(=O)([O-])[O-])P(=O)([O-])[O-].[Pt+4].[Pt+4],20 µM,> 100 µM
NC(N)=N/N=C/c1cc(Cl)cc(Cl)c1O,,> 100 µM
O=C(CSc1nnc(-c2ccccc2NC(=O)C(F)(F)F)c(=O)[nH]1)NC(=O)Nc1ccccc1,,> 100 µM
N#CC1Nc2ccccc2[C@@H](O)C1O (some centres undefined),,> 100 µM
O=C1c2ccn(CCCCNC(CO)(CO)CO)c2C(=O)c2c1c(O)c1ccccc1c2O,4.57 µM,13.8 µM
c1ccc2c3ccn4cc5c(cc4c-3nc2c1)CCCC5,1.69 µM,3.85 µM
CCOC(=O)c1[nH]c(COC(C)=O)c(CCCOC(C)=O)c1CCCOC(C)=O,,> 100 µM
CCN1C(=O)N(CC)C2C1NC(=S)N2/N=C/C=C/c1cccs1 (centres undefined),0.363 µM,> 100 µM
COc1ccc(C(=O)C(CO)Oc2ccccc2OC)cc1OC (centres undefined),,> 100 µM

# System: KM12 colon
# Assay: NCI-60 cell line screen, 48 h
SMILES,GI50,TGI
Nc1nc(Nc2ccccc2)c2ncn(Cc3cc4c(cc3Br)OCO4)c2n1,0.0418 µM,21 µM
Nc1c(C(=O)N/N=C/c2ccc(-c3ccc(Cl)cc3)o2)cnn1-c1ccnc2c(C(F)(F)F)cccc12,> 100 µM,> 100 µM
